# What was measured:
# TGF-beta receptor type-1 [1] = biological target: T1, TGF-beta receptor type-1 (Homo sapiens, UniProt P36897); test: Inhibition of 6His-tagged human ALK5 expressed in baculovirus-infected SF21 cells after 30 mins by fluorescence polarization assay
# T1 sequence (P36897 whole entry): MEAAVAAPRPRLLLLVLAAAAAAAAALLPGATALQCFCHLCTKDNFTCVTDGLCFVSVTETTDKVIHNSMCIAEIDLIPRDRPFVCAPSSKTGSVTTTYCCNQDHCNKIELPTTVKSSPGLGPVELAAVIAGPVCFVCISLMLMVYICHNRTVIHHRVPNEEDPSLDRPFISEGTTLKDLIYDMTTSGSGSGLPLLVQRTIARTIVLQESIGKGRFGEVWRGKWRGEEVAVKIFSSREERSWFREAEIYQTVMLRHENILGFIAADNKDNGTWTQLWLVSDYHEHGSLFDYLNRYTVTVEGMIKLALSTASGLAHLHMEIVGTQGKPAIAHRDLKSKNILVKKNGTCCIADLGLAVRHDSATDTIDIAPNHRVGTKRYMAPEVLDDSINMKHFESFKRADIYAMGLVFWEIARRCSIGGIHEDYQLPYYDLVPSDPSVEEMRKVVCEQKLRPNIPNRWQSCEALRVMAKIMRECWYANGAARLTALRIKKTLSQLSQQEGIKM
# TGF-beta receptor type-1 [2] = biological target: T1, TGF-beta receptor type-1; assay type: cell-based, MDA-MB-468
# Description: Inhibition of ALK5 in human MDA-MB-468 cells assessed as inhibition of nuclear translocation of GFP-2/Smad2 fusion reporter gene after 90 mins by Hoechst 3342 staining-based cellomics arrayscan imaging analysis
# [3] = Octanol-phosphate buffered saline partition coefficient, log D at pH 7.4
# in vivo [4] = settings: Han Wistar, rat, plasma, po, 5 umol/kg
# Description: AUC in Han Wistar rat at 5 umol/kg, po
# in vivo [5] = settings: Han Wistar, rat, po, 5 umol/kg
# Description: Oral bioavailability in Han Wistar rat at 5 umol/kg
# [6] = Clearance in Han Wistar rat at 5 umol/kg, po; settings: in vivo, iv
# [7] = octanol/phosphate buffered saline
IC50 (TGF-beta receptor type-1 [1]) [nM],IC50 (TGF-beta receptor type-1 [2]) [nM],logD ([3]; octanol/water),"logD [3, 7]",AUC (in vivo [4]) [µM·h],bioavailability (in vivo [5]) [%],clearance [6] [mL/min/kg],SMILES
107,628,–,–,–,–,–,COc1cc(Nc2cc(Oc3cccnc3C)ccn2)cc(OC)c1OC
108,282,3.2,–,–,–,–,COc1cc(Nc2cc(Oc3ccc(C)nc3)ccn2)cc(OC)c1OC
129,63,–,3.2,–,–,–,Cc1cc(Oc2ccnc(Nc3ccc(F)cc3)c2)c(-c2ccccn2)nc1C
–,–,–,3.3,–,–,–,Cc1cc(Oc2ccnc(Nc3cccc(N4CCOCC4)c3)c2)c(-c2ccccn2)nc1C
–,21,–,3,0.34,21,–,COc1cc(Nc2cc(Oc3ccc(C)nc3C)ccn2)cc(OC)c1OC
227,> 5800,–,2.7,–,–,–,COc1cc(Nc2cc(Oc3cccnc3)ccn2)cc(OC)c1OC
–,–,–,2.6,–,–,–,Cc1cc(Oc2ccnc(Nc3ccc(N4CCOCC4)cc3)c2)c(-c2ccccn2)nc1C
7,114,3.4,–,–,–,–,COc1ccccc1Nc1cc(Oc2cc(C)c(C)nc2-c2ccccn2)ccn1
–,–,–,3.1,–,–,–,Cc1cc(Oc2ccnc(Nc3ccccc3N3CCOCC3)c2)c(-c2ccccn2)nc1C
12,31,–,3.4,–,–,–,Cc1cc(Oc2ccnc(Nc3ccc(C(=O)N(C)C)cc3)c2)c(-c2ccccn2)nc1C
21,27,–,2.3,0.47,20,–,Cc1cc(Oc2ccnc(Nc3ccc(S(N)(=O)=O)cc3)c2)c(-c2ccccn2)nc1C
13,20,–,3.4,–,–,–,COc1cc(Nc2cc(Oc3ccc(C)nc3-c3ccccn3)ccn2)cc(OC)c1OC
–,–,2.5,–,4.95,75,12,Cc1ccc(Oc2ccnc(Nc3ccc(S(N)(=O)=O)cc3)c2)c(C)n1

SMILES,IC50 (TGF-beta receptor type-1 [1]) [nM],IC50 (TGF-beta receptor type-1 [2]) [nM],logD ([3]; octanol/water),"logD [3, 7]",AUC (in vivo [4]) [µM·h],bioavailability (in vivo [5]) [%],clearance [6] [mL/min/kg]
COc1cc(Nc2cc(Oc3cc(C)c(C)nc3-c3ccccn3)ccn2)cc(OC)c1OC,–,–,–,–,–,4,–

# — ChEMBL document CHEMBL1155219, “Rapid generation of a high quality lead for transforming growth factor-beta (TGF-beta) type I receptor (ALK5)” (J Med Chem, 2009)
